CCOC(=O)c1ccc(N)cc1
solubility (mole fraction)
Details	in ethanol	in isobutanol	in isopentanol	in methanol	in n-butanol	in n-propanol
283.15 K	0.0522	0.0281	0.0335	0.0528	0.037	0.0441
287.15 K	0.0611	0.0328	0.0371	0.0629	0.0467	0.0521
291.15 K	0.0712	0.0392	0.0439	0.075	0.0562	0.0605
295.15 K	0.0831	0.048	0.0529	0.0863	0.0668	0.071
299.15 K	0.0982	0.0583	0.0632	0.103	0.0821	0.085
303.15 K	0.115	0.071	0.0757	0.12	0.0981	0.101
307.15 K	0.135	0.0879	0.0917	0.141	0.118	0.121
311.15 K	0.16	0.111	0.115	0.168	0.146	0.148
315.15 K	0.191	0.14	0.145	0.2	0.176	0.179
318.15 K	0.221	0.168	0.172	0.227	0.207	0.211
321.15 K	0.251	0.204	0.206	0.259	0.241	0.245
324.15 K	0.289	0.25	0.252	0.296	0.281	0.284
327.15 K	0.328	0.303	0.305	0.335	0.323	0.326

Reference: BigSolDB 2.1
